The record followed here is ChEMBL document CHEMBL1136837, “Unified QSAR approach to antimicrobials. 4. Multi-target QSAR modeling and comparative multi-distance study of the giant components of antiviral drug-drug complex networks” (Bioorg Med Chem, 2009).

The test concerns Human immunodeficiency virus 1. Kind of test: Antiviral activity against HIV1. Format: functional, organism-based.
On to `NC(=O)c1cc2ccccc2n1S(=O)(=O)c1ccccc1`, for which the IC50 (as a rule, the concentration that gives 50% inhibition) came out at 15 µM.

`CC(C)(C)c1ccc(S(=O)(=O)c2c(C(N)=O)[nH]c3ccc(Cl)cc23)cc1` yielded an IC50 of 0.13 µM.

`Nc1nc(O)c2ncn([C@H]3S[C@@H](CO)C=C3F)c2n1`: the IC50 worked out at 43.5 µM.

As for `CC(=O)Nc1ccc(C(OCCn2c([N+](=O)[O-])cnc2C)c2ccccc2)cc1` (centres undefined), the IC50 was 200 µM.

For `CC(=O)OCc1cc2ccc3c(c2oc1=O)[C@@H](OC(=O)[C@@]12CC[C@](C)(C(=O)O1)C2(C)C)[C@@H](OC(=O)[C@@]12CC[C@](C)(C(=O)O1)C2(C)C)C(C)(C)O3`, 11.6 µM corresponded to half-maximal inhibition (IC50).

Take `Nc1ncnc2c1ncn2[C@@H]1O[C@H](CO)C=C1F`: the IC50 was 0.44 µM.

With `C=C(C)[C@@H]1CC[C@]2(C(=O)N[C@@H](CC(C)C)C(=O)OC)CC[C@]3(C)[C@H](CC[C@@H]4[C@@]5(C)CC[C@H](OC(C)=O)C(C)(C)[C@@H]5CC[C@]43C)[C@@H]12`, the IC50 is 40 µM.

Take `CC(C)Nc1cccnc1N1CCN(C(=O)c2cc3cc(NS(C)(=O)=O)ccc3[nH]2)CC1` [DELAVIRDINE]: the IC50 amounted to 5.4 µM.

The molecule `C=C(C)[C@@H]1CC[C@]2(C(=O)NCCCCCCCCCCC(=O)N[C@@H](CC(C)C)C(=O)OC)CC[C@]3(C)[C@H](CC[C@@H]4[C@@]5(C)CC[C@H](O)C(C)(C)[C@@H]5CC[C@]43C)[C@@H]12` displayed an IC50 of 32 µM.

`CC1(C)Oc2ccc3cc(CBr)c(=O)oc3c2[C@@H](OC(=O)[C@@]23CC[C@](C)(C(=O)O2)C3(C)C)[C@H]1OC(=O)[C@@]12CC[C@](C)(C(=O)O1)C2(C)C` displayed an IC50 of 11.1 µM.

With `CCOC(=O)c1[nH]c2c(Cl)cccc2c1S(=O)(=O)c1ccccc1N`, the IC50 is 200 µM.

Molecule `Nc1ncnc2c1ncn2[C@H]1CC(F)(F)[C@H](CO)O1` had an IC50 of 100 µM.

Turning to `Cc1cn([C@@H]2CC(F)(F)[C@H](CO)O2)c(=O)nc1O`, the midpoint of inhibition, the IC50, lay at 100 µM.

For the molecule `Fc1cccc(F)c1Cn1c(-c2ccccc2)nc2ccccc21`, the IC50 came to 0.06 µM.

In the case of `Nc1ncnc2c1ncn2C1C=CC(OCP(=O)(O)OP(=O)(O)OP(=O)(O)OP(=O)(O)COC2C=CC(n3cnc4c(N)ncnc43)C2)C1` (centres undefined), half-maximal inhibition (IC50) was put at 2 µM.

`O=C(O)/C(O)=C/C(=O)c1ccc(C(=O)/C=C(\O)C(=O)O)cc1`: the 50% inhibitory concentration (IC50) stood at 1.28 µM.

On to `O=C(c1cc(Cc2ccccc2)ccn1)c1ccc2cccnc2c1O`, for which inhibition was half-maximal at 0.05 µM (IC50).

`COC(=O)C(=O)CC(=O)c1cn(C)c2cc3c(cc12)OCO3`: the IC50 came to 31 µM.

In turn, `Cc1cc(C)nc(N2C(=O)CSC2c2c(Cl)cccc2Cl)c1` (centres undefined) came in with an IC50 of 0.09 µM.

On to `Nc1ncnc2c1ncn2C1C=CC(OCP(=O)(O)OP(=O)(O)C(Br)(Br)P(=O)(O)O)C1` (centres undefined), for which the IC50 amounted to 1000 µM.

`Nc1nc2c(ncn2C2C=CC(OCP(=O)(O)OP(=O)(O)OP(=O)(O)OP(=O)(O)COC3C=CC(n4cnc5c(N)ncnc54)C3)C2)c(=O)[nH]1` (centres undefined) yielded an IC50 of 0.7 µM.

Take `Nc1nc(O)c2ncn([C@@H]3C=C(F)[C@H](CO)O3)c2n1`: the half-maximal inhibitory concentration (IC50) came out at 38.5 µM.

In turn, `O=C(O)/C(O)=C/C(=O)c1ccnc2ccccc12` had an IC50 of 100 µM.

`CC(c1cc(=O)[nH]c(SC2CCCC2)n1)c1c(F)cccc1F` (centres undefined): the IC50 is 0.03 µM.

In turn, `O=C1CSC(c2c(F)cccc2F)N1c1ccccn1` (centres undefined) gave an IC50 of 0.855 µM.

Take `O=C(/C=C/c1ccc(O)c(O)c1)NCC(OC(=O)/C=C/c1ccc(O)c(O)c1)C(=O)O` (racemic): the IC50 came out at 0.19 µM.

For `Cc1cn([C@H]2C=C[C@@](C#CCl)(CO)O2)c(=O)[nH]c1=O`, half-maximal inhibition (IC50) was put at 100 µM.

Turning to `N#Cc1c(Cl)n([C@H]2C[C@H](O)[C@@H](CO)O2)c2cc(Cl)c(Cl)cc12`, it took 35 µM to reach half-maximal inhibition (IC50).

Molecule `NNC(=O)c1[nH]c2ccc(Cl)cc2c1Sc1ccc(Cl)cc1` came in with an IC50 of 10 µM.

In turn, `C=C(C)[C@@H]1CC[C@]2(C(=O)NCCCCCCCC(=O)N[C@@H](CC(C)C)C(=O)O)CC[C@]3(C)[C@H](CC[C@@H]4[C@@]5(C)CC[C@H](O)C(C)(C)[C@@H]5CC[C@]43C)[C@@H]12` had an IC50 of 1.38 µM.

For the molecule `Cc1ncc([N+](=O)[O-])n1CCOC(c1ccccc1)c1ccc([N+](=O)[O-])cc1` (centres undefined), the IC50 amounted to 5 µM.

The molecule `Nc1nc2c(ncn2C2C=CC(OCP(=O)(O)OP(=O)(O)C(F)(F)P(=O)(O)OP(=O)(O)COC3C=CC(n4cnc5c(N)ncnc54)C3)C2)c(=O)[nH]1` (centres undefined) yielded an IC50 of 15 µM.

In turn, `Cc1cc(=O)oc2c3c(c(CN)cc12)OC(C)(C)[C@H](OC(=O)[C@@]12CC[C@](C)(C(=O)O1)C2(C)C)[C@@H]3OC(=O)[C@@]12CC[C@](C)(C(=O)O1)C2(C)C` displayed an IC50 of 15 µM.

As for `NC(=O)c1[nH]c2ccc(Cl)cc2c1Sc1ccc(Cl)cc1`, half-maximal inhibition (IC50) was put at 3.1 µM.

In turn, `O=C(O)/C(O)=C/C(=O)c1c[nH]c2ccc(Cl)cc12` displayed an IC50 of 0.52 µM.

Molecule `Cc1cn([C@@H]2S[C@H](CO)C=C2F)c(=O)nc1O` showed an IC50 of 92.3 µM.

Molecule `Cc1cccc(C)c1OCC(=O)N[C@@H](Cc1ccccc1)[C@@H](O)C[C@H](Cc1ccccc1)NC(=O)[C@H](C(C)C)N1CCCNC1=O` [LOPINAVIR] returned an IC50 of 0.034 µM.

Take `Cc1cc(/C=C/C#N)ccc1Oc1ccnc(Nc2ccc(C#N)cc2)n1`: the IC50 turned out to be 0.00063 µM.

In the case of `Cc1ncc([N+](=O)[O-])n1CCOC(c1ccccc1)c1cc(Cl)cc(Cl)c1` (centres undefined), the IC50 was 45 µM.

Turning to `C=C(C)[C@@H]1CC[C@]2(C(=O)NCCCCCCCC(=O)O)CC[C@]3(C)[C@H](CC[C@@H]4[C@@]5(C)CC[C@H](O)C(C)(C)[C@@H]5CC[C@]43C)[C@@H]12`, the IC50 amounted to 1 µM.

`CC(=O)OCc1c(C)c2ccc3c(c2oc1=O)[C@@H](OC(=O)[C@@]12CC[C@](C)(C(=O)O1)C2(C)C)[C@@H](OC(=O)[C@@]12CC[C@](C)(C(=O)O1)C2(C)C)C(C)(C)O3` had an IC50 of 14.8 µM.

For `CCN(CC)Cc1cc2ccc3c(c2oc1=O)[C@@H](OC(=O)[C@@]12CC[C@](C)(C(=O)O1)C2(C)C)[C@@H](OC(=O)[C@@]12CC[C@](C)(C(=O)O1)C2(C)C)C(C)(C)O3`, the IC50 worked out at 14.1 µM.

As for `O=C(NNC(=O)c1ccccc1S)c1ccccc1S` [BIS(THIOSALICYL)HYDRAZIDE], it took 4.3 µM to reach half-maximal inhibition (IC50).

The molecule `OC[C@H]1C=C(F)[C@@H](n2cnc3c(O)ncnc32)S1` gave an IC50 of 15.5 µM.

`Cc1c(CBr)c(=O)oc2c3c(ccc12)OC(C)(C)[C@H](OC(=O)[C@@]12CC[C@](C)(C(=O)O1)C2(C)C)[C@@H]3OC(=O)[C@@]12CC[C@](C)(C(=O)O1)C2(C)C` gave an IC50 of 20.9 µM.

With `Cc1c(Cc2c(F)cccc2F)nc(SC2CCCC2)[nH]c1=O`, the 50% inhibitory concentration (IC50) worked out at 0.08 µM.

Molecule `Nc1ccn([C@@H]2C=C(F)[C@H](CO)O2)c(=O)n1` came in with an IC50 of 0.089 µM.

As for `Cc1ccc(S(=O)(=O)c2c(C(N)=O)[nH]c3ccc(Cl)cc23)c(C)c1`, the IC50 was found to be 0.004 µM.

As for `Nc1nc(NC2CC2)c2ncn([C@H]3C=C[C@@H](CO)O3)c2n1`, half-maximal inhibition (IC50) required 8.6 µM.

The molecule `NC(=O)c1[nH]c2ccc(Cl)cc2c1S(=O)(=O)c1ccccc1` [L-737126] returned an IC50 of 2 µM.

`COc1ccc(CC2CCN(C3(C)CCN(C(=O)c4c(C)cccc4C)CC3)CC2)cc1` came in with an IC50 of 0.026 µM.

Molecule `CC(C)OC(=O)c1cn(S(=O)(=O)c2ccccc2)c2ccc(Cl)cc12` registered an IC50 of 200 µM.

Molecule `NC(=O)c1[nH]c2ccccc2c1Sc1cc(Cl)ccc1N` showed an IC50 of 9 µM.

Consider `Cc1cn([C@H]2C=C[C@@](C#N)(CO)O2)c(=O)[nH]c1=O`, for which the IC50 came to 7 µM.

The molecule `OC[C@@H]1O[C@H](n2cnc3c(O)ncnc32)C=C1F` returned an IC50 of 100 µM.

`O=C1CSC(c2c(Cl)cccc2Cl)N1c1ccc(Br)cn1` (centres undefined) yielded an IC50 of 1.51 µM.

On to `Cc1cccnc1N1C(=O)CSC1c1c(F)cccc1F` (centres undefined), for which the midpoint of inhibition, the IC50, lay at 53.5 µM.

Take `Cc1ncc([N+](=O)[O-])n1CCOC(c1ccccc1)c1ccccc1[N+](=O)[O-]` (centres undefined): the midpoint of inhibition, the IC50, lay at 0.6 µM.

Molecule `Nc1ccn([C@H]2CC(F)(F)[C@H](CO)O2)c(=O)n1` yielded an IC50 of 100 µM.

In turn, `C=CC[C@@]1(CO)C=C[C@H](n2cc(C)c(=O)[nH]c2=O)O1` gave an IC50 of 100 µM.

Molecule `CC1(C)Oc2ccc3ccc(=O)oc3c2[C@@H](OC(=O)[C@@]23CC[C@](C)(C(=O)O2)C3(C)C)[C@H]1OC(=O)[C@@]12CC[C@](C)(C(=O)O1)C2(C)C` [DCK] had an IC50 of 16.1 µM.

With `CC1(C)Oc2ccc3cc(CN)c(=O)oc3c2[C@@H](OC(=O)[C@@]23CC[C@](C)(C(=O)O2)C3(C)C)[C@H]1OC(=O)[C@@]12CC[C@](C)(C(=O)O1)C2(C)C`, the IC50 was 15.4 µM.

The molecule `Nc1ncnc2c1ncn2C1C=CC(OCP(=O)(O)OP(=O)(O)C(Br)(Br)P(=O)(O)OP(=O)(O)COC2C=CC(n3cnc4c(N)ncnc43)C2)C1` (centres undefined) gave an IC50 of 200 µM.

On to `Nc1nc(O)c2ncn([C@H]3CC(F)(F)[C@H](CO)O3)c2n1`, for which inhibition was half-maximal at 100 µM (IC50).

Molecule `Nc1nc(=O)n([C@@H]2C=C(F)[C@H](CO)O2)cc1F` yielded an IC50 of 0.018 µM.

Take `COC[C@@H](c1ccc(C(F)(F)F)cc1)N1CCN(C2(C)CCN(C(=O)c3c(C)ncnc3C)CC2)C[C@@H]1C` [VICRIVIROC]: half-maximal inhibition (IC50) was put at 0.00052 µM.

With `CCOC(=O)c1cc2ccccc2n1S(=O)(=O)c1cc(Cl)ccc1[N+](=O)[O-]`, half-maximal inhibition (IC50) required 100 µM.

Turning to `NC(=O)c1cc2ccc(Cl)cc2n1S(=O)(=O)c1ccccc1`, half-maximal inhibition (IC50) was put at 66 µM.

Regarding `CC(c1cc(=O)[nH]c(NC2CCCC2)n1)c1c(F)cccc1F` (centres undefined), half-maximal inhibition (IC50) required 0.04 µM.

`O=C(O)/C(O)=C/C(=O)c1ccccc1`: the IC50 came to 25 µM.

Consider `CC(C)c1ccc(Sc2c(C(N)=O)[nH]c3ccc(Cl)cc23)cc1`, for which 1.9 µM corresponded to half-maximal inhibition (IC50).

`NC(=O)c1cn(S(=O)(=O)c2ccccc2)c2ccccc12` gave an IC50 of 32 µM.

Take `Cc1cc(/C=C/C#N)cc(C)c1Oc1ccnc(Nc2ccc(C#N)cc2)n1`: the IC50 came to 0.001 µM.

Turning to `Cc1cc(Br)c(Nc2ccnc(Nc3ccc(C#N)cc3)n2)c(Br)c1`, the IC50 came to 0.00063 µM.

Turning to `O=c1nc(O)ccn1[C@@H]1S[C@H](CO)C=C1F`, the IC50 came to 100 µM.

Regarding `Cc1cc(C)nc(N2C(=O)CSC2c2c(F)cccc2F)c1` (centres undefined), the IC50 was 0.059 µM.

In turn, `Cc1cc(OCCCS(N)(=O)=O)ccc1NC(=O)COc1ccc(Cl)cc1C(=O)c1cc(F)cc(C(F)(F)F)c1` had an IC50 of 0.0024 µM.

For `CCO/N=C(\c1ccc(Br)cc1)C1CCN(C2(C)CCN(C(=O)c3cccnc3C)CC2)CC1`, the IC50 is 0.0014 µM.

Take `Nc1nc(=O)n([C@H]2O[C@H](CO)C=C2F)cc1F`: the IC50 worked out at 100 µM.
